# Test system: 565726-208-R1-J5-PDC complex spheroids, growth inhibition
# Assay: Anticancer human tumor 565726-208-R1-J5-PDC patient-derived pancreatic adenocarcinoma cell line growth inhibition [RAS]
# Settings: for IC50: curve of first compound; for viability, T/C: stronger effect = lower value
# Outline: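 Tumour cells grown as complex spheroids with HUVEC endothelial cells and mesenchymal stem cells, treated with RAS pathway inhibitor combinations. Each agent spans half-log steps from near clinical Cmax, or 10 microM where Cmax is unknown.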
# 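Note: spheroids exposed to compounds for seven days before readout.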
# 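Throughout, for viability, T/C: 100% = DMSO vehicle control viability.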
structure (smiles),measurement,setting,value
CC1(O)CCCC1n1c(=O)c(C(F)F)cc2cnc(NC3CCN(S(C)(=O)=O)CC3)nc21 (configuration not stated) + CCn1c(-c2cccnc2C(C)OC)c2c3cc(ccc31)N1CCOC(CC(NC(=O)C(C(C)C)N(C)C(=O)C3(F)CCN(C(=O)C#CC(C)(C)N(C)C)CC3)C(=O)N3CCCC(N3)C(=O)OCC(C)(C)C2)C1,IC50,second compound 0.000949 µM,1580 nM
same,IC50,second compound 0.003 µM,1740 nM
same,IC50,second compound 0.00949 µM,2480 nM
same,IC50,second compound 0.03 µM,2150 nM
same,IC50,second compound 0.0949 µM,734 nM
same,IC50,second compound 0.3 µM,1650 nM
same,"viability, T/C","second compound 0.000949 µM, first compound 0.0316 µM",89.3%
same,"viability, T/C","second compound 0.000949 µM, first compound 0.1 µM",65.9%
same,"viability, T/C","second compound 0.000949 µM, first compound 0.316 µM",61.5%
same,"viability, T/C","second compound 0.000949 µM, first compound 1 µM",55.9%
same,"viability, T/C","second compound 0.000949 µM, first compound 3.16 µM",48%
same,"viability, T/C","second compound 0.000949 µM, first compound 10 µM",4.71%
same,"viability, T/C","second compound 0.003 µM, first compound 0.0316 µM",92.6%
same,"viability, T/C","second compound 0.003 µM, first compound 0.1 µM",66.7%
same,"viability, T/C","second compound 0.003 µM, first compound 0.316 µM",59.9%
same,"viability, T/C","second compound 0.003 µM, first compound 1 µM",61.9%
same,"viability, T/C","second compound 0.003 µM, first compound 3.16 µM",47.5%
same,"viability, T/C","second compound 0.003 µM, first compound 10 µM",5.57%
same,"viability, T/C","second compound 0.00949 µM, first compound 0.0316 µM",87.1%
same,"viability, T/C","second compound 0.00949 µM, first compound 0.1 µM",73.3%
same,"viability, T/C","second compound 0.00949 µM, first compound 0.316 µM",64%
same,"viability, T/C","second compound 0.00949 µM, first compound 1 µM",65.4%
same,"viability, T/C","second compound 0.00949 µM, first compound 3.16 µM",50.4%
same,"viability, T/C","second compound 0.00949 µM, first compound 10 µM",4.99%
same,"viability, T/C","second compound 0.03 µM, first compound 0.0316 µM",79.3%
same,"viability, T/C","second compound 0.03 µM, first compound 0.1 µM",70.6%
same,"viability, T/C","second compound 0.03 µM, first compound 0.316 µM",64.6%
same,"viability, T/C","second compound 0.03 µM, first compound 1 µM",55%
same,"viability, T/C","second compound 0.03 µM, first compound 3.16 µM",51.5%
same,"viability, T/C","second compound 0.03 µM, first compound 10 µM",5.14%
same,"viability, T/C","second compound 0.0949 µM, first compound 0.0316 µM",86.3%
same,"viability, T/C","second compound 0.0949 µM, first compound 0.1 µM",72.7%
same,"viability, T/C","second compound 0.0949 µM, first compound 0.316 µM",53.8%
same,"viability, T/C","second compound 0.0949 µM, first compound 1 µM",53%
same,"viability, T/C","second compound 0.0949 µM, first compound 3.16 µM",49.9%
same,"viability, T/C","second compound 0.0949 µM, first compound 10 µM",3.75%
same,"viability, T/C","second compound 0.3 µM, first compound 0.0316 µM",68%
same,"viability, T/C","second compound 0.3 µM, first compound 0.1 µM",64.2%
same,"viability, T/C","second compound 0.3 µM, first compound 0.316 µM",54.3%
same,"viability, T/C","second compound 0.3 µM, first compound 1 µM",54.1%
same,"viability, T/C","second compound 0.3 µM, first compound 3.16 µM",45.4%
same,"viability, T/C","second compound 0.3 µM, first compound 10 µM",3.4%

# Source: PubChem BioAssay AID2060899 (Molecular Pharmacology Branch, DTP, NCI, 2025)
